Experimental data published in patent US20230278984A1 (Global Blood Therapeutics, Inc., priority 2020, published 2023).

Target: T1, Human pyruvate kinase R (PKR) (Homo sapiens, UniProt P30613)
T1 construct: Human pyruvate kinase R (PKR), residues 14-574; 6x-His (N, cleaved yes); 8x-Arg (N, cleaved yes); SUMO (N, cleaved yes); host or cells: E. coli
Test: Biochemical assay for activation of pyruvate kinase R (Kinase-Glo luminescence measurement of ATP generation)
Settings: for AC50: PKR biochemical assay, 0.1 nM PKR, 0.3 mM ADP, 2 mM FBP, 0.1 mM PEP; for Emax: maximal activation level relative to the activation level achieved by the literature compound AG-348 @ 10 μM
Experimental: Human pyruvate kinase R (PKR), residues 14-574, and human pyruvate kinase M2, residues 1-531, were cloned into expression plasmids and obtained from ATUM Bio (Newark, Calif.). Proteins were translated as fusions with 6×-His, 8×-Arg, and SUMO at the N-terminus. A third construct of human PKR was truncated, residues 50-574, and similarly cloned for use in crystallography experiments. All proteins were cloned, expressed in E. coli, and purified using similar protocols. Cells were grown at 30° C. in Luria-Bertani broth supplemented with 0.4% glucose to OD600=0.8 and induced with 0.4 mM IPTG at 16° C. for 18 hours. Cells were harvested by centrifugation, resuspended in 50 mM potassium phosphate pH 8.0, 500 mM NaCl, 25 mM imidazole pH 8.0, and 3 mM (3-mercaptoethanol. Cells were lysed using a LM20 microfluidizer from Microfluidics (Westwood, Mass.). The crude lysate was immediately supplemented with 0.2 mM phenylmethylsulfonyl fluoride (PMSF) and centrifuged at 20,000 g for 20 minutes. The soluble fraction was subsequently incubated with 2 mL Ni-NTA (GE Healthcare) per 1,000 ODs for 1 hour at 4° C. Following incubation with the Ni-NTA resin, lysate was removed by pelleting resin at 2,500 g for 3 minutes and washed 3 times with 9 bed volumes of 50 mM potassium phosphate pH 8.0, 500 mM NaCl, 25 mM imidazole, and 3 mM 3-mercaptoethanol. Following the batch wash Ni-NTA resin was loaded onto a gravity column and His-tagged protein was eluted with 6 bed volumes of 10 mM Tris/HCl pH 8.0, 200 mM NaCl, 500 mM imidazole, and 3 mM (3-mercaptoethanol. Eluted protein was dialyzed overnight against 10 mM Tris/HCl pH 8.0, 200 mM NaCl, and 1 mM DTT and the 6×-His-8×-Arg-SUMO-tag was cleaved using a 20:1 molar ratio of protein:3C protease. The protein was purified by anion exchange chromatography on a HiTrapQ or MonoQ 10/100 GL column (GE Healthcare) via a linear NaCl gradient and twice by size exclusion chromatography using a Superdex S200 26/60 column (GE Healthcare) run in 10 mM Tris/HCl pH 8.0, 200 mM NaCl, 10 mM MgCl2, 1 mM DTT. Proteins were concentrated to −12 mg/mL for crystallization and flash frozen for storage.
Biochemical Assay for Activation of Pyruvate Kinase R
Activation of pyruvate kinase R (PKR) and pyruvate kinase M2 (PKM2) were measured using a luminescence based measurement of ATP generation and the Kinase-Glo luminescent kinase reagent kit.

T1 sequence (P30613 14-574): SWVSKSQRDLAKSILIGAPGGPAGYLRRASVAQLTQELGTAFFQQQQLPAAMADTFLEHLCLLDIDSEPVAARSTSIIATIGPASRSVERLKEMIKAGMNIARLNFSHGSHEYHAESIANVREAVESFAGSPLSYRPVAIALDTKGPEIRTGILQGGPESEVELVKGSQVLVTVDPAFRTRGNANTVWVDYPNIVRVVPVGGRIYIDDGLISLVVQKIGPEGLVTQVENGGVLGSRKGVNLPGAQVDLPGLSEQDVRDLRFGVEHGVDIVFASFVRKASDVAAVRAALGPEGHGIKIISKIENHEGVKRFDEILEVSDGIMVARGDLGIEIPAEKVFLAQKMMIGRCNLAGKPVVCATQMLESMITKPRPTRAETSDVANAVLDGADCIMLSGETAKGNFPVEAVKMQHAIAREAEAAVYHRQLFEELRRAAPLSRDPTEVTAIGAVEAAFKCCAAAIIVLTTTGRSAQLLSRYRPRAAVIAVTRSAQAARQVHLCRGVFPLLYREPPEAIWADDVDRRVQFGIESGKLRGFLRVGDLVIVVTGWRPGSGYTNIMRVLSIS

| SMILES | AC50 [µM] | Emax [%] |
| --- | --- | --- |
| O=C(NCc1nnnn1-c1ccc(Cl)cc1)NCc1nnnn1-c1ccc(Cl)cc1 [Compound 1, 1,3-bis({[1-(4-chlorophenyl)-1H-1,2,3,4-tetrazol-5-yl]methyl})urea] | 0.189 | 96 |
| O=C(NCc1nnnn1-c1cccc(Cl)c1)NCc1nnnn1-c1cccc(Cl)c1 [Compound 2, 1,3-bis({[1-(3-chlorophenyl)-1H-1,2,3,4-tetrazol-5-yl]methyl})urea] | 0.53 | 69 |
| O=C1N(Cc2nnnn2-c2ccc(Cl)cc2)CCCN1Cc1nnnn1-c1ccc(Cl)cc1 [Compound 3, 1,3-bis({[1-(4-chlorophenyl)-1H-1,2,3,4-tetrazol-5-yl]methyl})-1,3-diazinan-2-one] | 6 | 53 |
| O=C1N(Cc2nnnn2-c2ccc(Cl)c(F)c2)CCCN1Cc1nnnn1-c1ccc(Cl)c(F)c1 [Compound 4, 1,3-bis({[1-(4-chloro-3-fluorophenyl)-1H-1,2,3,4-tetrazol-5-yl]methyl})-1,3-diazinan-2-one] | 1.2 | 80 |
| O=C(NCc1ncnn1-c1ccc(Cl)c(F)c1)NCc1ncnn1C1CCOCC1 [Compound 5, 3-{[1-(4-chloro-3-fluorophenyl)-1H-1,2,4-triazol-5-yl]methyl}-1-{[1-(oxan-4-yl)-1H-1,2,4-triazol-5-yl]methyl}urea] | 0.42 | 47 |
| O=C1N(Cc2ncnn2-c2ccc(Cl)c(F)c2)CCCN1Cc1ncnn1-c1ccc(Cl)c(F)c1 [Compound 6, 1,3-bis({[1-(4-chloro-3-fluorophenyl)-1H-1,2,4-triazol-5-yl]methyl})-1,3-diazinan-2-one] | 0.0054 | 33 |
| O=C(NCc1ncnn1CC1CCOCC1)NCc1ncnn1-c1ccc(Cl)c(F)c1 [Compound 7, 3-{[1-(4-chloro-3-fluorophenyl)-1H-1,2,4-triazol-5-yl]methyl}-1-({1-[(oxan-4-yl)methyl]-1H-1,2,4-triazol-5-yl}methyl)urea] | 0.044 | 46 |
| CCN(Cc1ncnn1-c1ccc(Cl)c(F)c1)C(=O)NCc1ncnn1CC1CCOCC1 [Compound 8, 3-{[1-(4-chloro-3-fluorophenyl)-1H-1,2,4-triazol-5-yl]methyl}-3-ethyl-1-({1-[(oxan-4-yl)methyl]-1H-1,2,4-triazol-5-yl}methyl)urea] | 0.32 | 59 |
| CCN(Cc1ncnn1CC1CCOCC1)C(=O)NCc1ncnn1-c1ccc(Cl)c(F)c1 [Compound 9, 3-{[1-(4-chloro-3-fluorophenyl)-1H-1,2,4-triazol-5-yl]methyl}-1-ethyl-1-({1-[(oxan-4-yl)methyl]-1H-1,2,4-triazol-5-yl}methyl)urea] | 0.12 | 64 |
| Cc1nc(CNC(=O)NCc2ncnn2CC2CCOCC2)n(-c2ccc(Cl)c(F)c2)n1 [Compound 10, 3-{[1-(4-chloro-3-fluorophenyl)-3-methyl-1H-1,2,4-triazol-5-yl]methyl}-1-({1-[(oxan-4-yl)methyl]-1H-1,2,4-triazol-5-yl}methyl)urea] | 0.08 | 74 |
| CC1(Cn2ncnc2CNC(=O)NCc2ncnn2-c2ccc(Cl)c(F)c2)CCOCC1 [Compound 11, 3-{[1-(4-chloro-3-fluorophenyl)-1H-1,2,4-triazol-5-yl]methyl}-1-({1-[(4-methyloxan-4-yl)methyl]-1H-1,2,4-triazol-5-yl}methyl)urea] | 0.088 | 49 |
| Cc1nc(CNC(=O)NCc2ncnn2CC2(C)CCOCC2)n(-c2ccc(Cl)c(F)c2)n1 [Compound 12, 3-{[1-(4-chloro-3-fluorophenyl)-3-methyl-1H-1,2,4-triazol-5-yl]methyl}-1-({1-[(4-methyloxan-4-yl)methyl]-1H-1,2,4-triazol-5-yl}methyl)urea] | 0.18 | 89 |
| CC1(C)CC(Cn2ncnc2CNC(=O)NCc2ncnn2-c2ccc(Cl)c(F)c2)CCO1 (centres unmarked) [Compound 13, 3-{[1-(4-chloro-3-fluorophenyl)-1H-1,2,4-triazol-5-yl]methyl}-1-({1-[(2,2-dimethyloxan-4-yl)methyl]-1H-1,2,4-triazol-5-yl}methyl)urea] | 1 | 55 |
| Cc1nc(CNC(=O)NCc2ncnn2CC2CCOC(C)(C)C2)n(-c2ccc(Cl)c(F)c2)n1 (centres unmarked) [Compound 14, 3-{[1-(4-chloro-3-fluorophenyl)-3-methyl-1H-1,2,4-triazol-5-yl]methyl}-1-({1-[(2,2-dimethyloxan-4-yl)methyl]-1H-1,2,4-triazol-5-yl}methyl)urea] | 1.4 | 84 |
| O=C(NCc1ncnn1CC1CCOCC1)NCc1ncnn1-c1ccc2cccnc2c1 [Compound 15, 3-({1-[(oxan-4-yl)methyl]-1H-1,2,4-triazol-5-yl}methyl)-1-{[1-(quinolin-7-yl)-1H-1,2,4-triazol-5-yl]methyl}urea] | 0.31 | 57 |
| Cc1nc(CNC(=O)NCc2ncnn2CC2CCCCC2)n(-c2ccc(Cl)c(F)c2)n1 [Compound 16, 3-{[1-(4-chloro-3-fluorophenyl)-3-methyl-1H-1,2,4-triazol-5-yl]methyl}-1-{[1-(cyclohexylmethyl)-1H-1,2,4-triazol-5-yl]methyl}urea] | 0.055 | 93 |
| Cc1nc(CNC(=O)NCc2ncnn2-c2ccc3scnc3c2)n(-c2ccc(Cl)c(F)c2)n1 [Compound 17, 1-{[1-(1,3-benzothiazol-5-yl)-1H-1,2,4-triazol-5-yl]methyl}-3-{[1-(4-chloro-3-fluorophenyl)-3-methyl-1H-1,2,4-triazol-5-yl]methyl}urea] | 0.013 | 82 |
| Cc1nc(CNC(=O)NCc2ncnn2Cc2ccccc2)n(-c2ccc(Cl)c(F)c2)n1 [Compound 18, 1-[(1-benzyl-1H-1,2,4-triazol-5-yl)methyl]-3-{[1-(4-chloro-3-fluorophenyl)-3-methyl-1H-1,2,4-triazol-5-yl]methyl}urea] | 0.037 | 85 |
| Cc1nc(CNC(=O)NCc2ncnn2Cc2ccc(F)cc2)n(-c2ccc(Cl)c(F)c2)n1 [Compound 20, 3-{[1-(4-chloro-3-fluorophenyl)-3-methyl-1H-1,2,4-triazol-5-yl]methyl}-1-({1-[(4-fluorophenyl)methyl]-1H-1,2,4-triazol-5-yl}methyl)urea] | 0.051 | 97 |
| Cc1nc(CNC(=O)N(C)Cc2ncnn2-c2ccc3scnc3c2)n(-c2ccc(Cl)c(F)c2)n1 [Compound 22, 1-{[1-(1,3-benzothiazol-5-yl)-1H-1,2,4-triazol-5-yl]methyl}-3-{[1-(4-chloro-3-fluorophenyl)-3-methyl-1H-1,2,4-triazol-5-yl]methyl}-1-methylurea] | 0.033 | 83 |
| Cc1nc(CNC(=O)NCc2ncnn2CC2(O)CCCCC2)n(-c2ccc(Cl)c(F)c2)n1 [Compound 23, 3-{[1-(4-chloro-3-fluorophenyl)-3-methyl-1H-1,2,4-triazol-5-yl]methyl}-1-({1-[(1-hydroxycyclohexyl)methyl]-1H-1,2,4-triazol-5-yl}methyl)urea] | 0.23 | 72 |
| Cc1nc(CNC(=O)NCc2ncnn2-c2ccc3c(c2)OCC3)n(-c2ccc(Cl)c(F)c2)n1 [Compound 24, 3-{[1-(4-chloro-3-fluorophenyl)-3-methyl-1H-1,2,4-triazol-5-yl]methyl}-1-{[1-(2,3-dihydro-1-benzofuran-6-yl)-1H-1,2,4-triazol-5-yl]methyl}urea] | 0.024 | 75 |
| O=C(NCc1nnnn1-c1ccc(Cl)cc1F)NCc1nnnn1-c1ccc(Cl)cc1F [Compound 25, 1,3-bis({[1-(4-chloro-2-fluorophenyl)-1H-1,2,3,4-tetrazol-5-yl]methyl})urea] | 2.5 | 80 |
| CN(Cc1nnnn1-c1ccc(Cl)c(F)c1)C(=O)NCc1nnnn1-c1ccc(Cl)c(F)c1 [Compound 26, 1,3-bis({[1-(4-chloro-3-fluorophenyl)-1H-1,2,3,4-tetrazol-5-yl]methyl})-1-methylurea] | 0.073 | 93 |
| CN(Cc1ncnn1-c1ccc(Cl)c(F)c1)C(=O)NCc1ncnn1-c1ccc(Cl)c(F)c1 [Compound 27, 1,3-bis({[1-(4-chloro-3-fluorophenyl)-1H-1,2,4-triazol-5-yl]methyl})-1-methylurea] | 0.0054 | 33 |
